From PMC10786919, “Design-rules for stapled peptides with in vivo activity and their application to Mdm2/X antagonists” (Nature Communications, 2024) come the findings set out here.

Values after ≈ are worked out from the molar mass of the structure shown. Where two headings read alike, the source gives them in different places. Positions of bridges follow the written chain, without caps; N, C: chain ends. Non-standard residues stand in square brackets, D forms with d. Residues, ends and D or L forms follow the SMILES beside them. R8 = C=CCCCCCC[C@@](C)(N)C(=O)O; Cba = N[C@@H](CC1CCC1)C(=O)O; S5 = C=CCCC[C@](C)(N)C(=O)O

Data set [1] is described as follows: Lactate dehydrogenase (LDH) release assay. It counts as cell-based. Conditions: LDH: Cytotoxicity assay EC50. The method in brief:
(§1)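 Membrane damage measured as lactate dehydrogenase release (CytoTox-ONE kit) from p53-responsive β-lactamase reporter HCT116 cells plated at 8000 per well. Final DMSO 0.5%; geometric mean reported from a minimum of three biological replicates.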

Data set [2] is described as follows: Solubility assay (kinetic solubility, PBS pH 7). The class given is physicochemical. As to conditions: pH 7, aqueous buffer, kinetic from dmso stock. The method in brief: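 Std: 10 mM stock → 100 µM in ACN/MeOH/DMSO (10:80:10). Sol. [µM] = (sample peak area / std peak area) × std conc.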
Data set [3] can be described thus: physchem.
A short description of data set [4]: Experimental LogD (partition coefficient).
The test system of data set [5] is p53 responsive β-lactamase reporter in HCT116 cells. In words: cells. The class given is cell-based. As to conditions: for EC50: read-out: p53 reporter assay EC50. The method in brief:
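HCT116 cells stably carrying a p53-responsive β-lactamase reporter, seeded at 8000 cells/well, with 0.5% DMSO final. Reporter activity read by ToxBLAzer Dual Screen. Values are geometric means of at least three biological replicates.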

Data set [6] has as its system HCT116 cells. In words: Lactate dehydrogenase (LDH) release assay. The class given is cell-based. The method in brief:
as §1

For data set [7], the system named is Jump-In T-REx CHO-K1 BLA cells. Nature of the data set: cells. The class given is cell-based. Conditions: for EC50: read-out: TETCHO: Counterscreen EC50. How it is done: This assay was based on Jump-In™ T-REx™ CHO-K1 BLA cells containing a stably integrated β-lactamase under the control of an inducible cytomegalovirus (CMV) promoter. Cells were maintained in Dulbecco’s […] Eagle Medium (DMEM) with 10% fetal bovine serum (FBS), Blasticidin, and Penicillin/Streptomycin and then transferred to 1.5 ml freezing vials and stored under liquid nitrogen in growth media containing 5% DMSO. […] Cells were seeded into a 384-well plate at a density of 4000 cells per well. Peptides were then dispensed to each well using a liquid handler, ECHO 555 and incubated for 16 h. The final working concentration of DMSO was 0.5%. β-lactamase activity was detected using the ToxBLAzer Dual Screen (Invitrogen), as per the manufacturer’s instructions. Measurements were carried out using the Envision multiplate reader (Perkin–Elmer). Counterscreen activity was defined as the amount of β-lactamase activity induced by tetracycline. Measurements were taken a minimum of three times (biological replicates) and values are reported as geometric means of the replicates.

Setting [8] is: pH 7, PBS, read-out: Solubility.
[9] abbreviates: not stated, Partition Coeff LogD.

A word on the EC50: it is the concentration needed to bring the measured effect to its halfway point. What is called logD is the decadic logarithm of the distribution of all forms, ionised or not, between an organic phase and buffer at a given pH. A high value points to a more lipophilic compound. With `CC(=O)N[C@@H](CCCNC(=N)N)C(=O)N[C@H](C(=O)N[C@@H](Cc1ccccc1)C(=O)N[C@]1(C)CCCCCCC=CCCC[C@@](C)(C(=O)N[C@@H](CO)C(=O)N[C@@H](C)C(=O)N[C@@H](C)C(N)=O)NC(=O)[C@H](CC2CCC2)NC(=O)[C@H](CC(C)C)NC(=O)[C@H](CCC(N)=O)NC(=O)[C@H](Cc2c[nH]c3ccccc23)NC(=O)[C@H](Cc2ccc(O)cc2)NC(=O)[C@H](CCC(=O)O)NC1=O)[C@@H](C)O` [MP-191] (Ac-RTF[R8]EYWQL[Cba][S5]SAA-NH2; staple 4-11), in data set [1], the EC50 is more than 50 µM. Also, in data set [2] (setting [8]), the solubility kinetic worked out at 3 µM (≈ 5.49 µg/mL). In addition, the EPSA in data set [3] was found to be 222 A^2. Besides, the logD in data set [4] (setting [9]) amounted to 2.72.

`CC(=O)N[C@@H](CC(C)C)C(=O)N[C@H](C(=O)N[C@@H](Cc1ccccc1)C(=O)NC(C)(C)C(=O)N[C@@H](CCC(=O)O)C(=O)N[C@@H](Cc1ccc(O)cc1)C(=O)N[C@@H](Cc1c[nH]c2ccccc12)C(=O)N[C@@H](CCC(N)=O)C(=O)N[C@@H](CC(C)C)C(=O)N[C@@H](CC1CCC1)C(=O)NC(C)(C)C(=O)N[C@@H](CO)C(=O)N[C@@H](C)C(=O)N[C@@H](C)C(N)=O)[C@@H](C)O` [MP-7189] displayed an EC50 in data set [1] of more than 50 µM. Besides, the solubility kinetic in data set [2] (setting [8]) was 24 µM (≈ 40 µg/mL). This molecule showed an EPSA in data set [3] of 199 A^2. In data set [4] (setting [9]), this molecule showed a logD of 2.12.

With `CC(=O)N[C@@H](Cc1ccccc1)C(=O)N[C@]1(C)CCCCCCC=CCCC[C@@](C)(C(=O)N[C@@H](CO)C(N)=O)NC(=O)[C@H](CC2CCC2)NC(=O)[C@H](CC(C)C)NC(=O)[C@H](CCC(N)=O)NC(=O)[C@H](Cc2c[nH]c3ccccc23)NC(=O)[C@H](Cc2ccc(O)cc2)NC(=O)[C@H](CCC(=O)O)NC1=O` [MP-203] (Ac-F[R8]EYWQL[Cba][S5]S-NH2; staple 2-9), the EC50 in data set [1] was more than 50 µM. For the same molecule, the solubility kinetic in data set [2] (setting [8]) turned out to be 96 µM (≈ 137 µg/mL). The EPSA in data set [3] is 213 A^2. Moreover, the logD in data set [4] (setting [9]) is 2.61.

Consider `CC(C)[C@@H](CS(=O)(=O)C(C)C)N1C(=O)[C@@](C)(CC(=O)O)C[C@H](c2cccc(Cl)c2)[C@H]1c1ccc(Cl)cc1` [AMG232], for which the figures for the “p53 reporter assay % Effect” value in data set [5] (0% FBS 4Hr), in data set [5] (10% FBS 4Hr) and in data set [5] (10% FBS 16Hr) were 95.1%, 82.7% and 83.6%, respectively. Also, the EC50 in data set [5] (Homo sapiens, HCT-116, 4 h, 0% FBS 4Hr) is 0.0116 µM; in data set [5] (Homo sapiens, HCT-116, 4 h, 10% FBS 4Hr), 0.0742 µM; in data set [5] (Homo sapiens, HCT-116, 16 h, 10% FBS 16Hr) it was 0.255 µM; in data set [7] (T-REx-CHO-K1, 4 h, 0% FBS 4Hr), 45.6 µM; in data set [7] (T-REx-CHO-K1, 4 h, 10% FBS 4Hr), more than 50.4 µM; in data set [7] (T-REx-CHO-K1, 16 h, 10% FBS 16Hr) it was more than 50.4 µM. Besides, the results for the “LDH: Cytotoxicity assay % Effect” value in data set [6] (0% FBS 4Hr), in data set [6] (10% FBS 4Hr) and in data set [6] (10% FBS 16Hr) were -4.2%, -12.8% and -18.8%, respectively. Moreover, the results for the “TETCHO: Counterscreen % Effect” value in data set [7] (0% FBS 4Hr), in data set [7] (10% FBS 4Hr) and in data set [7] (10% FBS 16Hr) were 72.2%, 30.6% and -10.3%, respectively. The molecule further yielded a solubility kinetic in data set [2] of 138 µM (≈ 78.5 µg/mL). Also, the logD in data set [4] came out at 2.25.

On to `CC(=O)N[C@@H](Cc1ccccc1)C(=O)N[C@]1(C)CCCCCCC=CCCC[C@@](C)(C(=O)N[C@@H](CO)C(=O)N[C@@H](C)C(=O)N[C@@H](C)C(N)=O)NC(=O)[C@H](CC2CCC2)NC(=O)[C@H](CC(C)C)NC(=O)[C@H](CCC(N)=O)NC(=O)[C@H](Cc2c[nH]c3ccccc23)NC(=O)[C@H](Cc2ccc(O)cc2)NC(=O)[C@H](CCC(=O)O)NC1=O` [MP-1202] (Ac-F[R8]EYWQL[Cba][S5]SAA-NH2; staple 2-9), for which the EC50 in data set [1] is more than 50 µM. Also, in data set [2] (setting [8]), the solubility kinetic was determined as 15 µM (≈ 23.6 µg/mL). The same molecule displayed an EPSA in data set [3] of 214 A^2. The logD in data set [4] (setting [9]) worked out at 2.59.

`CC(=O)N[C@@H](CC(C)C)C(=O)N[C@H](C(=O)N[C@@H](Cc1ccccc1)C(=O)N[C@]1(C)CCCCCCC=CCCC[C@@](C)(C(=O)N[C@@H](CCCNC(=N)N)C(=O)N[C@@H](C)C(=O)N[C@@H](C)C(N)=O)NC(=O)[C@H](CC2CCC2)NC(=O)[C@H](CC(C)C)NC(=O)[C@H](CCC(N)=O)NC(=O)[C@H](Cc2c[nH]c3ccccc23)NC(=O)[C@H](Cc2ccc(O)cc2)NC(=O)[C@H](CCC(=O)O)NC1=O)[C@@H](C)O` [MP-196] (Ac-LTF[R8]EYWQL[Cba][S5]RAA-NH2; staple 4-11) displayed an EC50 in data set [1] of more than 50 µM. In data set [2] (setting [8]), the solubility kinetic turned out to be 3 µM (≈ 5.57 µg/mL). In data set [3], this molecule returned an EPSA of 214 A^2. Also, the logD in data set [4] (setting [9]) turned out to be 2.77.

For the molecule `CC(=O)N[C@@H](Cc1c[nH]cn1)C(=O)N[C@H](C(=O)N[C@@H](Cc1ccccc1)C(=O)N[C@]1(C)CCCCCCC=CCCC[C@@](C)(C(=O)N[C@@H](CO)C(=O)N[C@@H](C)C(=O)N[C@@H](C)C(N)=O)NC(=O)[C@H](CC2CCC2)NC(=O)[C@H](CC(C)C)NC(=O)[C@H](CCC(N)=O)NC(=O)[C@H](Cc2c[nH]c3ccccc23)NC(=O)[C@H](Cc2ccc(O)cc2)NC(=O)[C@H](CCC(=O)O)NC1=O)[C@@H](C)O` [MP-197, ATSP-7041 (L1H)] (Ac-HTF[R8]EYWQL[Cba][S5]SAA-NH2; staple 4-11), the EC50 in data set [1] was more than 50 µM. Moreover, in data set [2] (setting [8]), the solubility kinetic was found to be 17 µM (≈ 30.8 µg/mL). The molecule also had an EPSA in data set [3] of 222 A^2. In data set [4] (setting [9]), the log distribution coefficient (logD) came to 2.56.

On to `CC(=O)N[C@@H](CC(C)C)C(=O)N[C@@H](CCCNC(=N)N)C(=O)N[C@@H](Cc1ccccc1)C(=O)N[C@]1(C)CCCCCCC=CCCC[C@@](C)(C(=O)N[C@@H](CO)C(=O)N[C@@H](C)C(=O)N[C@@H](C)C(N)=O)NC(=O)[C@H](CC2CCC2)NC(=O)[C@H](CC(C)C)NC(=O)[C@H](CCC(N)=O)NC(=O)[C@H](Cc2c[nH]c3ccccc23)NC(=O)[C@H](Cc2ccc(O)cc2)NC(=O)[C@H](CCC(=O)O)NC1=O` [MP-1192] (Ac-LRF[R8]EYWQL[Cba][S5]SAA-NH2; staple 4-11), for which the EC50 in data set [1] was more than 50 µM. The solubility kinetic in data set [2] (setting [8]) was determined as 3 µM (≈ 5.53 µg/mL). The EPSA in data set [3] is 220 A^2. The same molecule came in with a logD in data set [4] (setting [9]) of 2.79.

Molecule `CC(=O)N[C@@H](CC(C)C)C(=O)N[C@H](C(=O)N[C@@H](Cc1ccccc1)C(=O)N[C@]1(C)CCCCCCC=CCCC[C@@](C)(C(=O)N[C@@H](CO)C(=O)N[C@@H](C)C(=O)N[C@@H](C)C(N)=O)NC(=O)[C@H](CC2CCC2)NC(=O)[C@H](CCCNC(=N)N)NC(=O)[C@H](CCC(N)=O)NC(=O)[C@H](Cc2c[nH]c3ccccc23)NC(=O)[C@H](Cc2ccc(O)cc2)NC(=O)[C@H](CCC(=O)O)NC1=O)[C@@H](C)O` [MP-195] (Ac-LTF[R8]EYWQR[Cba][S5]SAA-NH2; staple 4-11) yielded an EC50 in data set [1] of more than 50 µM. Besides, the solubility kinetic in data set [2] (setting [8]) is 3 µM (≈ 5.49 µg/mL). The EPSA in data set [3] amounted to 216 A^2. Besides, in data set [4] (setting [9]), the pH-dependent lipophilicity (logD) turned out to be 2.87.

Molecule `CC(=O)N[C@@H](CC(C)C)C(=O)N[C@H](C(=O)N[C@@H](Cc1ccccc1)C(=O)N[C@]1(C)CCCCCCC=CCCC[C@@](C)(C(=O)N[C@@H](CO)C(=O)N[C@@H](C)C(=O)N[C@@H](C)C(N)=O)NC(=O)[C@H](CC2CCC2)NC(=O)[C@H](Cc2c[nH]cn2)NC(=O)[C@H](CCC(N)=O)NC(=O)[C@H](Cc2c[nH]c3ccccc23)NC(=O)[C@H](Cc2ccc(O)cc2)NC(=O)[C@H](CCC(=O)O)NC1=O)[C@@H](C)O` [MP-200, ATSP-7041 (L9H)] (Ac-LTF[R8]EYWQH[Cba][S5]SAA-NH2; staple 4-11) returned an EC50 in data set [1] of more than 50 µM. Further, the solubility kinetic in data set [2] (setting [8]) is 94.5 µM (≈ 171 µg/mL). Further, the EPSA in data set [3] turned out to be 219 A^2. The molecule also had a logD in data set [4] (setting [9]) of 2.69.

Turning to `CC(=O)N[C@H](C(=O)N[C@@H](CO)C(=O)N[C@@H](Cc1ccccc1)C(=O)N[C@]1(C)CCCCCCC=CCCC[C@@](C)(C(=O)O)NC(=O)[C@H](CC(C)C)NC(=O)[C@H](CC(C)C)NC(=O)[C@H](C)NC(=O)[C@H](Cc2c[nH]c3ccccc23)NC(=O)[C@H](Cc2ccc(O)cc2)NC(=O)[C@H](CCC(=O)O)NC1=O)[C@@H](C)O` [MP-162], the EC50 was 36.2 µM in data set [5] (0% FBS 4Hr), more than 50.7 µM in data set [1] and 46.9 µM in data set [7] (0% FBS 4Hr). Besides, the “LDH: Cytotoxicity assay % Effect” value in data set [6] is given as 20.08%. Further, the “TETCHO: Counterscreen % Effect” value in data set [7] (0% FBS 4Hr) is listed as 18.54%.
